The values that follow are results of earlier work, collected in patent publication US10059696B2, “Process for preparing 1,3-dihydroimidazole-2-thione derivatives” (BIAL-PORTELA & CA, S.A., priority 2011, dated 2018).

The conditions of the series: able to cause central as well as peripheral effects.

Consider `NCc1c[nH]c(=S)n1[C@H]1CCc2c(F)cc(F)cc2C1` [nepicastat], for which the “blood brain barrier (BBB) crossing” value is reported as “found to cross the blood brain barrier”.
